Assay results taken from ChEMBL document CHEMBL5113526, “Design, Synthesis, and Biological Evaluation of Androgen Receptor Degrading and Antagonizing Bifunctional Steroidal Analogs for the Treatment of Advanced Prostate Cancer” (J Med Chem, 2022).

What was measured:
LNCaP [1] = assay: cells; settings: Homo sapiens
Description: Antiproliferative activity against human LNCAP cells assessed as reduction in cell viability measured after 6 days by CellTiter-Glo assay

LNCaP [2] = assay: Antiproliferative activity against human LNCAP cells assessed as reduction in cell viability at 10 uM measured after 6 days by CellTiterGlo assay relative to control; type: functional; settings: Homo sapiens, LNCaP, time 6 day
[3] = target: T1, Steroid 17-alpha-hydroxylase/17,20 lyase (Homo sapiens, UniProt P05093); assay: Inhibition of human recombinant CYP17A1 incubated for 5 mins in presence of NADPH by LC-MS/MS analysis; type: ADME
T1 sequence (P05093 whole entry): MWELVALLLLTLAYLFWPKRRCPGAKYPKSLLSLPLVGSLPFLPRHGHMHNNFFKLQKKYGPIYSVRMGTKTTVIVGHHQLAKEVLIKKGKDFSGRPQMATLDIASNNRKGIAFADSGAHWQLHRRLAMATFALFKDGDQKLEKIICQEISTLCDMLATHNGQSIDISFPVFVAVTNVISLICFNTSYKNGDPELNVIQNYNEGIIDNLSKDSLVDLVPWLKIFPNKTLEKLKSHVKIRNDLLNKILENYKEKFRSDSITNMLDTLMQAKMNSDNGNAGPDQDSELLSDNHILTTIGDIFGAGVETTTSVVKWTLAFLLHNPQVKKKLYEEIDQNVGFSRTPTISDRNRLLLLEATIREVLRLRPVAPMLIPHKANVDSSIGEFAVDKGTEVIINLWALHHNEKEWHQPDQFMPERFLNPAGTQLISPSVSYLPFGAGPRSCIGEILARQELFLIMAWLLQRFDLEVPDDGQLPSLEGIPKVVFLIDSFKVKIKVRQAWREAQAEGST

Androgen receptor [4] = target: T2, Androgen receptor (Homo sapiens, UniProt P10275); assay: Antagonist activity at DHT-induced Androgen receptor transcriptional activity in human HEK293 cells measured after 24 hrs by Steady-Glo reagent based assay; type: cell-based
T2 sequence (P10275 whole entry): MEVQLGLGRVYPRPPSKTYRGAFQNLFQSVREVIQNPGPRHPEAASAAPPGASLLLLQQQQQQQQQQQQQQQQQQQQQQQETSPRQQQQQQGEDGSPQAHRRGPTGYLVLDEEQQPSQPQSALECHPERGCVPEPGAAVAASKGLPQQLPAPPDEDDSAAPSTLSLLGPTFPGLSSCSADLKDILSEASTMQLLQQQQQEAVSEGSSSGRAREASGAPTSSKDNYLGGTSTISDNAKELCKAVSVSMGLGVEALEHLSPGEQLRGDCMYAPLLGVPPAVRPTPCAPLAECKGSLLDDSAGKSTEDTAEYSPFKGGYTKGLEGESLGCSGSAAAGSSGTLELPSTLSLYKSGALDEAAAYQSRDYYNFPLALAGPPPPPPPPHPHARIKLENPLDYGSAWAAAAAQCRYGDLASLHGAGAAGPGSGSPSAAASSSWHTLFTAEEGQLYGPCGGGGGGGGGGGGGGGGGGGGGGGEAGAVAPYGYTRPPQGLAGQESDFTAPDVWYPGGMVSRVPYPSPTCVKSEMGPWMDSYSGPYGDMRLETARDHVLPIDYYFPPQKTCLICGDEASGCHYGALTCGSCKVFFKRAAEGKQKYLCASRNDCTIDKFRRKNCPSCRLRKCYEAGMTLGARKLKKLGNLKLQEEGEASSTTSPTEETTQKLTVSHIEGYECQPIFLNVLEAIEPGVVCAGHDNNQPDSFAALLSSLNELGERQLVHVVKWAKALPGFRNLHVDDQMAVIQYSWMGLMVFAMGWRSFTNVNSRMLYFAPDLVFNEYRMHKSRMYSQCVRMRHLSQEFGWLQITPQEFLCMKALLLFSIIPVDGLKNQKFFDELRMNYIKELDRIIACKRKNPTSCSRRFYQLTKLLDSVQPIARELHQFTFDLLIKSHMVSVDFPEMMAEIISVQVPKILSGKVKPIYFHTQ

Androgen receptor [5] = target: T2, Androgen receptor; assay: Induction of AR degradation in human LNCap cells incubated for 24 hrs by sandwich ELISA analysis; type: cell-based
[6] = Cmax in Sprague-Dawley rat at 10 mg/kg, po measured up to 24 hrs by LC-MS/MS analysis; type: ADME, organism-based; design: dose 10 mg/kg, time < 24 hrs, route po; settings: in vivo
[7] = Terminal half life in Sprague-Dawley rat at 10 mg/kg, po measured up to 24 hrs by LC-MS/MS analysis; type: ADME, organism-based; settings: in vivo, read-out: beta t1/2 (converted)
[8] = AUC (0 to t) in Sprague-Dawley rat at 10 mg/kg, po measured up to 24 hrs by LC-MS/MS analysis; type: ADME, organism-based; design: time < 24 hrs, dose 10 mg/kg, route po; settings: in vivo
[9] = Tmax in Sprague-Dawley rat at 10 mg/kg, po measured up to 24 hrs by LC-MS/MS analysis; type: ADME, organism-based; settings: in vivo

Structure (SMILES)	IC50 (LNCaP [1])	inhibition at 10 µM (LNCaP [2])	other results
C[C@]12CC[C@H](O)C[C@@H]1[C@H](NS(=O)(=O)c1cccnc1)C[C@@H]1[C@@H]2CC[C@]2(C)C(c3cccnc3)=CC[C@@H]12	5.43 µM	100%	–
Cc1cn(C2=CC[C@H]3[C@@H]4CC=C5C[C@@H](NC(=O)c6ccnnc6)CC[C@]5(C)[C@H]4CC[C@]23C)cn1	0.466 µM	97%	Cmax [6]: 802 ng/mL; half-life [7]: 3.58 h; AUC(0-t) at 24 h [8]: 5620 ng·h/mL; IC50 (Androgen receptor [4]): 0.244 µM; IC50 [3]: > 3 µM; DC50 (Androgen receptor [5]): 2.08 µM; Tmax [9]: 4.67 h
C[C@]12CC[C@H](O)C[C@@H]1[C@H](NS(C)(=O)=O)C[C@@H]1[C@@H]2CC[C@]2(C)C(c3cccnc3)=CC[C@@H]12	> 10 µM	–	–
CO/N=C1\C[C@@H]2[C@H](CC[C@]3(C)C(c4cccnc4)=CC[C@@H]23)[C@@]2(C)CC[C@H](O)C[C@H]12	8.12 µM	100%	–
Cc1noc(C)c1S(=O)(=O)N[C@H]1CC[C@@]2(C)C(=CC[C@@H]3[C@@H]2CC[C@]2(C)C(n4cnc5ccccc54)=CC[C@@H]32)C1	2.26 µM	100%	–
C[C@]12CC[C@H](NC(=O)c3cscn3)CC1=CC[C@@H]1[C@@H]2CC[C@]2(C)C(n3cnc4ccccc43)=CC[C@@H]12	0.978 µM	63.2%	–
C[C@]12CC[C@H](O)CC1=CC[C@@H]1[C@@H]2CC[C@]2(C)C(n3cnc4ccccc43)=CC[C@@H]12 [GALETERONE]	3.55 µM	110%	IC50 [3]: 0.016 µM
C[C@]12CC[C@H](NC(=O)c3ccnnc3)CC1=CC[C@@H]1[C@@H]2CC[C@]2(C)C(n3ccnc3)=CC[C@@H]12	0.383 µM	92.4%	IC50 (Androgen receptor [4]): 0.981 µM; DC50 (Androgen receptor [5]): 2.76 µM
C[C@]12CC[C@H](NC(=O)c3cccnn3)CC1=CC[C@@H]1[C@@H]2CC[C@]2(C)C(n3cnc4ccccc43)=CC[C@@H]12	2.25 µM	–	–
C[C@]12CC[C@H](NC(=O)c3ccnnc3)CC1=CC[C@@H]1[C@@H]2CC[C@]2(C)C(c3cncnc3)=CC[C@@H]12	0.82 µM	99.7%	–
Cn1cncc1S(=O)(=O)N[C@H]1CC[C@@]2(C)C(=CC[C@@H]3[C@@H]2CC[C@]2(C)C(n4cnc5ccccc54)=CC[C@@H]32)C1	7.2 µM	100%	–
C[C@]12CC[C@H](NC(=O)c3ccncn3)CC1=CC[C@@H]1[C@@H]2CC[C@]2(C)C(n3cnc4ccccc43)=CC[C@@H]12	1.42 µM	101%	–
Cc1cn(C2=CC[C@H]3[C@@H]4CC=C5C[C@@H](NC(=O)c6cccnc6)CC[C@]5(C)[C@H]4CC[C@]23C)cn1	0.933 µM	103%	IC50 (Androgen receptor [4]): 1.28 µM; DC50 (Androgen receptor [5]): 3.58 µM
C[C@]12CC[C@H](O)C[C@@H]1[C@H](Oc1ccncn1)C[C@@H]1[C@@H]2CC[C@]2(C)C(c3cccnc3)=CC[C@@H]12	3.16 µM	91.3%	–
C[C@]12CC[C@H](NC(=O)c3cocn3)CC1=CC[C@@H]1[C@@H]2CC[C@]2(C)C(n3cnc4ccccc43)=CC[C@@H]12	2.23 µM	95.2%	–
C[C@]12CC[C@H](O)C[C@@H]1[C@H](CO)C[C@@H]1[C@@H]2CC[C@]2(C)C(c3cccnc3)=CC[C@@H]12	2.83 µM	88.5%	–
C[C@]12CC[C@H](NCc3ccncc3)CC1=CC[C@@H]1[C@@H]2CC[C@]2(C)C(n3cnc4ccccc43)=CC[C@@H]12	2.39 µM	111%	–
C[C@]12CC[C@H](NS(=O)(=O)c3cccnc3)CC1=CC[C@@H]1[C@@H]2CC[C@]2(C)C(n3cnc4ccccc43)=CC[C@@H]12	1.64 µM	93.3%	–
C[C@]12CC[C@H](NC(=O)c3ccncc3)CC1=CC[C@@H]1[C@@H]2CC[C@]2(C)C(n3cnc4ccccc43)=CC[C@@H]12	0.763 µM	104%	IC50 (Androgen receptor [4]): 1.55 µM; DC50 (Androgen receptor [5]): 3.76 µM
C[C@]12CC[C@H](NC(=O)c3ccnnc3)CC1=CC[C@@H]1[C@@H]2CC[C@]2(C)C(n3cnc4ccccc43)=CC[C@@H]12	0.765 µM	95.9%	IC50 (Androgen receptor [4]): 1.35 µM; DC50 (Androgen receptor [5]): 4.78 µM
C[C@]12CC[C@H](O)C[C@@H]1[C@@H](OS(C)(=O)=O)C[C@@H]1[C@@H]2CC[C@]2(C)C(c3cccnc3)=CC[C@@H]12	1.79 µM	100%	–

Continued, in another order:

IC50 (LNCaP [1])	Structure (SMILES)	inhibition at 10 µM (LNCaP [2])	other results
> 10 µM	COc1cncc(C2=CC[C@H]3[C@@H]4CC=C5C[C@@H](NC(=O)c6cccnc6)CC[C@]5(C)[C@H]4CC[C@]23C)c1	–	–
1.6 µM	C[C@]12CC[C@H](NC(=O)c3cccnc3)CC1=CC[C@@H]1[C@@H]2CC[C@]2(C)C(n3cnc4ccccc43)=CC[C@@H]12	109%	–
0.238 µM	C[C@]12CC[C@H](NC(=O)c3ccnnc3)CC1=CC[C@@H]1[C@@H]2CC[C@]2(C)C(n3cncn3)=CC[C@@H]12	64.4%	IC50 [3]: > 3 µM
0.743 µM	Cc1cncc(C2=CC[C@H]3[C@@H]4CC=C5C[C@@H](NC(=O)c6ccnnc6)CC[C@]5(C)[C@H]4CC[C@]23C)c1	78.2%	IC50 (Androgen receptor [4]): 1.64 µM; DC50 (Androgen receptor [5]): 11.8 µM
2.21 µM	C[C@]12CC[C@H](NC(=O)c3ccnnc3)CC1=CC[C@@H]1[C@@H]2CC[C@]2(C)C(c3cncc(F)c3)=CC[C@@H]12	100%	–
2.71 µM	C[C@]12CC[C@H](O)CC1=CC[C@@H]1[C@@H]2CC[C@]2(C)C(c3cccnc3)=CC[C@@H]12 [ABIRATERONE]	84.7%	IC50 [3]: 0.002 µM
0.672 µM	C[C@]12CC[C@H](NC(=O)c3ccnnc3)CC1=CC[C@@H]1[C@@H]2CC[C@]2(C)C(n3ccnn3)=CC[C@@H]12	–	IC50 (Androgen receptor [4]): 9.14 µM; IC50 [3]: > 3 µM; DC50 (Androgen receptor [5]): 4.36 µM
> 10 µM	C[C@]12CC[C@H](NC(=O)c3cccnc3)CC1=CC[C@@H]1[C@@H]2CC[C@]2(C)C(c3cncnc3)=CC[C@@H]12	–	–
1.39 µM	C[C@]12CC[C@H](NC(=O)c3cccnc3)CC1=CC[C@@H]1[C@@H]2CC[C@]2(C)C(n3ccnn3)=CC[C@@H]12	76.2%	–
0.646 µM	COc1cncc(C2=CC[C@H]3[C@@H]4CC=C5C[C@@H](NC(=O)c6ccnnc6)CC[C@]5(C)[C@H]4CC[C@]23C)c1	73.7%	IC50 (Androgen receptor [4]): 0.914 µM; DC50 (Androgen receptor [5]): 38.4 µM
1.67 µM	C[C@]12CC[C@H](NC(=O)c3cccnc3)CC1=CC[C@@H]1[C@@H]2CC[C@]2(C)C(n3cncn3)=CC[C@@H]12	105%	–
1.01 µM	C[C@]12CC[C@H](NC(=O)c3ccncc3)CC1=CC[C@@H]1[C@@H]2CC[C@]2(C)C(c3cncc(F)c3)=CC[C@@H]12	104%	–
2.43 µM	Cc1cncc(C2=CC[C@H]3[C@@H]4CC=C5C[C@@H](NC(=O)c6cccnc6)CC[C@]5(C)[C@H]4CC[C@]23C)c1	90.3%	–
